Data reported in the supplement of paper PMC10307832.

Assays:
Assay in all cases: relative viability (nuclei count vs DMSO), 5 days (fraction); higher = more cells survive
Linsitinib + Pictilisib = compound: C[C@]1(O)C[C@@H](c2nc(-c3ccc4ccc(-c5ccccc5)nc4c3)c3c(N)nccn32)C1 [Linsitinib] + CS(=O)(=O)N1CCN(Cc2cc3nc(-c4cccc5[nH]ncc45)nc(N4CCOCC4)c3s2)CC1 [Pictilisib] (partner 1 µM)
In short: (§1)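 Medians of duplicate plates are given as relative viability. That measure is the nuclei count in treated wells divided by the count in vehicle wells. Counts were taken on 4× images of lung cancer cell lines in 1536-well plates, 5 days after pin-tool dosing the day after seeding with one drug alone or a fixed anchor-drug dose plus five library-drug doses (not always all listed) in √10 steps.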

Ispinesib + Crizotinib = compound: Cc1ccc(C(=O)N(CCCN)[C@@H](c2nc3cc(Cl)ccc3c(=O)n2Cc2ccccc2)C(C)C)cc1 [Ispinesib] + C[C@@H](Oc1cc(-c2cnn(C3CCNCC3)c2)cnc1N)c1c(Cl)ccc(F)c1Cl [Crizotinib] (partner 1 µM)
In short: as §1

Ispinesib + Luminespib = compound: Cc1ccc(C(=O)N(CCCN)[C@@H](c2nc3cc(Cl)ccc3c(=O)n2Cc2ccccc2)C(C)C)cc1 [Ispinesib] + CCNC(=O)c1noc(-c2cc(C(C)C)c(O)cc2O)c1-c1ccc(CN2CCOCC2)cc1 [Luminespib] (partner 0.01 µM)
In short: as §1

Linsitinib + OSI-027 = compound: C[C@]1(O)C[C@@H](c2nc(-c3ccc4ccc(-c5ccccc5)nc4c3)c3c(N)nccn32)C1 [Linsitinib] + COc1cccc2cc(-c3nc([C@H]4CC[C@H](C(=O)O)CC4)n4ncnc(N)c34)[nH]c12 [OSI-027] (partner 0.5 µM)
In short: as §1

Cell Line: UMC-11
- relative viability (Linsitinib + Pictilisib; first compound 0.01 µM): 0.786
- relative viability (Linsitinib + Pictilisib; first compound 0.03162 µM): 0.735
- relative viability (Linsitinib + Pictilisib; first compound 0.1 µM): 0.834
- relative viability (Linsitinib + Pictilisib; first compound 1 µM): 0.691
- relative viability (Ispinesib + Crizotinib; first compound 0.001 µM): 0.547
- relative viability (Ispinesib + Crizotinib; first compound 0.003162 µM): 0.636
- relative viability (Ispinesib + Crizotinib; first compound 0.01 µM): 0.394
- relative viability (Ispinesib + Crizotinib; first compound 0.03162 µM): 0.192
- relative viability (Ispinesib + Crizotinib; first compound 0.1 µM): 0.376
- relative viability (Ispinesib + Luminespib; first compound 0.001 µM): 0.919
- relative viability (Ispinesib + Luminespib; first compound 0.003162 µM): 1.02
- relative viability (Ispinesib + Luminespib; first compound 0.01 µM): 1.05
- relative viability (Ispinesib + Luminespib; first compound 0.03162 µM): 0.451
- relative viability (Ispinesib + Luminespib; first compound 0.1 µM): 0.323
- relative viability (Linsitinib + OSI-027; first compound 0.01 µM): 0.468
- relative viability (Linsitinib + OSI-027; first compound 0.03162 µM): 0.433
- relative viability (Linsitinib + OSI-027; first compound 0.1 µM): 0.552
- relative viability (Linsitinib + OSI-027; first compound 1 µM): 0.432
